Target: T1, Aminopeptidase B (Mus musculus, UniProt Q8VCT3)
T1 sequence (Q8VCT3 whole entry): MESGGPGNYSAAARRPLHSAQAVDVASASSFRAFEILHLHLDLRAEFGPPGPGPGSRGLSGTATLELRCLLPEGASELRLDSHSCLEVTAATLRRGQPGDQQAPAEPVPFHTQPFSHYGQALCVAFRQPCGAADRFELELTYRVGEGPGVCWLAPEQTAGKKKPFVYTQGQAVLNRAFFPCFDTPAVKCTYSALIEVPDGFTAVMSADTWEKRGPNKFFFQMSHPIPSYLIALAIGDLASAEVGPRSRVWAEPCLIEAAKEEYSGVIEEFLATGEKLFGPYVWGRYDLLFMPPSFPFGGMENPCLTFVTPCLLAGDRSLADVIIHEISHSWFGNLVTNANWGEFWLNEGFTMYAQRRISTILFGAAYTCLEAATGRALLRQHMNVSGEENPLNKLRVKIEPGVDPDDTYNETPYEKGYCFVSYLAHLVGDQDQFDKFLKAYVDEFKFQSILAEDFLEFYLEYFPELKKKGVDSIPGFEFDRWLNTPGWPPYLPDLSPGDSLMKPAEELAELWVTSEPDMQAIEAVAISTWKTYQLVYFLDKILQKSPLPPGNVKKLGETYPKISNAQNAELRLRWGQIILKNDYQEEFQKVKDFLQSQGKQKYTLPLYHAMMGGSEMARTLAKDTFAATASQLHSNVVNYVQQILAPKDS

CC(C)C[C@H](NC(=O)[C@@H](O)[C@H](N)Cc1ccccc1)C(=O)O
IC50: 160 µM
